Series [1] deals with kidney mitochondria. Description: Respiration of kidney mitochondria isolated from mito2HOBA and LPS treated mice. The format is in vivo, mouse.
Description: To study the mitochondrial function, the combination of glutamate and malate (GM) or succinate was used as substrates. Since glutamate can be converted via transamination to α-ketoglutarate and further to succinate, the present inventors used complex II inhibitor malonate to define specific complex I respiration. The basal respiration (1) was measured in mitochondria supplemented with respiratory substrates. Then ADP was added to measure the coupled respiration (2). The proton leak (3) was determined after addition of complex V inhibitor oligomycin A. The uncoupled respiration (4) was measured after supplementation with CCCP. Finally, antimycin A plus rotenone were added to assess non-mitochondrial respiration (5) as described previously [32].
In order to define specific alterations in the mitochondrial respiration in LPS model of sepsis and test the potential protection by mito2HOBA the present inventors adopted the Seahorse protocol for mitochondrial studies in the presence of mitochondrial substrates Glutamate+Malate (GM) or succinate. To define the specific role of complex I mediated respiration the present inventors performed measurements in the presence of complex II inhibitor malonate (5 mM). The present inventors measured basal respiration in the presence of mitochondria plus substrates, coupled respiration after addition of ADP (2 mM), proton leak following addition of oligomycin A (2.5 μM) uncoupled respiration after supplementation of CCCP (1 μM) and non-mitochondrial respiration with mixture of antimycin A and rotenone (1 μM) Mitochondrial studies where independently verified in two labs using Oroboros O2k high-resolution respirometry and Fluorescence Lifetime Micro Oxygen Monitoring System (Instech Laboratories, Inc). Kidney mitochondria were isolated from control sham mice, LPS-injected mice (25 μg/g, 16 hours post-injection), mito2HOBA supplemented mice (0.1 g/Liter drinking water, 4 days), or mito2HOBA plus LPS (0.1 g/Liter mito2HOBA for 3 days plus LPS injection).
A short description of series [2]: Mass spectrometric analysis of mitochondria from mice given mito2HOBA in drinking water. Type of series: in vivo. The text has this: (§1) Mito2HOBA is a water-soluble compound which can be supplied in the media and provided to animals in the drinking water.
Series [3] relates to renal ATP. Put plainly: ATP levels in kidney tissue of angiotensin II-infused mice. Type of series: in vivo, mouse. The note with it: Ang II plus mito2HOBA. The procedure:
(§2) FIGS. 13A-B show mito2HOBA reduces mPTP opening and prevents mitochondrial dysfunc¬tion. C57B1/6J mice were infused with Ang II ([…]) and mito2HOBA in the drinking water (0.1 g/L). Following 14 days of Ang II infusion the animals were sacrificed and kidneys were isolated for mitochondrial studies. Addition of CaCl2 to mitochondria above Ca2+ retention capacity led to mPTP opening and mitochondria swelling. 71 Mitochondria isolated from Ang II-infused mice had significant reduction in Ca2+ capacity due to increased mPTP opening and CypD inhibitor Cyclosporine A (CsA) rescued Ca2+ retention capacity (A). Respiratory control ratio (State 3/State 4) was measured in isolated kidney mitochondria with glutamate and malate (B). Control level is 100%. (C) Renal ATP was measured in freshly isolated tissue by luciferase-based luminescent assay. 72 Results are mean±SEM. *P<0.01 vs Sham, **P<0.01 vs Angiotensin II (n=5).
ATP concentration in the kidney tissue was measured by luminescent ATP detection assay kit (Abcam; Cat #ab113849). Luminescence signals were read using a Biotek Synergy H1 plate reader. Luminescence units were calculated as μmol/mg protein based on the ATP calibration curve and protein concentration measured by the Bradford method.

In series [4] the test system is endothelial nitric oxide. Description: Aortic nitric oxide by ESR and Fe(DETC)2 in angiotensin II-infused mice. Type of series: in vivo, mouse. The note with it: Ang II plus mito2HOBA. How it is done: (§3) FIGS. 12A-D show the effect of mito2HOBA supplementation on mitochondrial superoxide (A), vascular superoxide (B), endothelial nitric oxide (C) and endothelial-dependent relaxation (D) in angiotensin II-infused mice. Mitochondrial and vascular O2⋅ was measured by mitochondria-targeted superoxide probe mitoSOX (1 μM) or untargeted superoxide probe DHE (50 μM) using HPLC.46 Endothelial nitric oxide was analyzed by NO spin trap Fe(DETC)2 and ESR.47 C57B1/6J mice were infused with Ang II and mito2HOBA was provided in the drinking water (0.1 g/L). […] Results are mean±SEM. *P<0.01 vs Sham, **P<0.01 vs Ang II (n=6).
Nitric oxide production in aortas was quantified by ESR and colloid Fe(DETC)2 as we have described previously. All ESR samples were placed in quartz Dewar (Corning, New York, NY) filled with liquid nitrogen. ESR spectra were recorded using an EMX ESR spectrometer (Bruker Biospin Corp., Billerica, MA) and a super high Q microwave cavity. The ESR settings were as follows: field sweep, 160 Gauss; microwave frequency, 9.42 GHz; microwave power, 10 milliwatts; modulation amplitude, 3 Gauss; scan time, […]; time constant, 5.2 sec; and receiver gain, 60 dB (n=4 scans).

Series [5] is described as follows: Tolerability in animal experiments. Type of series: in vivo. Conditions: doses from 0.1-0.3 g/L in drinking water.
Excerpt: as §1

The subject of series [6] is aortic mitochondrial proteins (SOD2, CypD, NDUFS1). Description: Western blot analysis of mitochondrial acetylation and isoLG adducts in aortas of angiotensin II-infused mice. The format is in vivo, mouse. The text has this:
FIGS. 11A-D show Western blot analysis of mitochondrial acetylation in aortas isolated from Sham and angiotensin II-infused mice treated with mito2HOBA. (A) Typical Western blots isoLG-protein adducts (D11 ab), Sirt3, Acetyl-Lysine, SOD2-K68-Acetylation, CypD Acetylation, isoLG adduct with complex I NDUFS1 75 KDa subunit and mitochondrial complex I; (B) Sirt3 levels; (C) mitochondrial protein lysine acetylation; (D) SOD2-K68-Acetyl levels; and (E) CypD-Acetyl levels. Mice supplied with mito2HOBA (m2H) in drinking water (0.1 g/L) and angiotensin II (osmotic pump, 0.7 mg/kg/day) for 14 days. Data were normalized by Complex I levels (Sham is 100%). Results are mean±SEM (n=5). *P<0.01 vs Sham, **P<0.01 vs angiotensin II (Ang II).
Dihydroethidium (DHE) and MitoSOX superoxide probes were supplied by Invitrogen (Grand Island, NY). Sirt3 (54905) antibodies were from Cell Signaling. Acetyl-K68-SOD2 (ab137037), complex I NDUFS1 75 kDa subunit (ab22094) and CypD (ab110324) and GAPDH (ab8245) antibodies were from Abcam. SOD2 (sc30080) antibodies were obtained from Santa Cruz Biotechnology. Acetyl-lysine antibodies (ab3839) were provided by Millipore-Sigma. D11, an isoLG-lysyl adducts-specific scFv antibody, has been previously characterized. All antibodies were used at 1000-fold dilution. […] All other reagents were obtained from Sigma (St Louis, MO).
On the technique in general: In western blotting, separated proteins are transferred to a membrane and probed.

Series [7] relates to mPTP. The format is in vivo. The note with it: treatment of Ang II-infused mice with mito2HOBA.
Series [8] relates to kidney mitochondria. Description: Respiration of kidney mitochondria from angiotensin II-infused mice (respiratory control ratio). Conditions: Ang II plus mito2HOBA. Type of series: in vivo, mouse. How it is done:
as §2
The following respiration medium was used (in mM): 125 mM KCl, 10 mM MOPS (pH 7.2), 2 mM MgCl2, 2 mM KH2PO4, 10 mM NaCl, 1 mM EGTA, 0.7 mM CaCl2, 10 mM glutamate and 2 mM malate. […] Respiratory control ratio was calculated as the rate ratio State 3 to State 4, where State 4 is the rate after ADP phosphorylation.

For series [9], the system named is aortic superoxide. Put plainly: Aortic superoxide by HPLC (mitoSOX, DHE) in angiotensin II-infused mice. Type of series: in vivo, mouse. The procedure: as §3
Mouse aortic segments were loaded with DHE (50 μM) or mitochondria-targeted mitoSOX (1 μM) in KHB buffer by 30-minute incubation in a tissue culture incubator at 37° C. […] The tissue homogenate was passed through a 0.22 μm syringe filter and methanol filtrates were analyzed by HPLC according to previously published protocols. The superoxide specific product 2-hydroxyethidium was detected using a C-18 reverse-phase column (Nucleosil 250 to 4.5 mm) and a mobile phase containing 0.1% trifluoroacetic acid and an acetonitrile gradient (from 37% to 47%) at a flow rate of 0.5 ml/min. 2-Hydroxyethidium was quantified by fluorescence detector using an emission wavelength of 580 nm and an excitation of 480 nm as described previously.

Where [10] appears, read: LPS 25 μg/g plus mito2HOBA 0.1 g/L.
[11] abbreviates: mito2HOBA alone, 0.1 g/L drinking water, 4 days.
Setting [12] is: kidney and heart mitochondria, drinking water 0.1 g/L for 5-days.

Structures are written as SMILES.

Consider `NCc1ccc(OCCCC[P+](c2ccccc2)(c2ccccc2)c2ccccc2)cc1O` [mito2HOBA], for which, in series [1] (setting [10]), the “LPS-induced impairment of GM-mediated respiration” value is recorded as “significantly protected”, the “LPS-induced impairment of complex I-specific oxygen consumption in the presence of GM+malonate” value is “significantly protected”, the mitochondrial protein leak entry was “did not affect” and the succinate mediated respiration result is “did not affect”. Also, in [1] (setting [11]), the “complex I-specific oxygen consumption in the presence of GM+malonate” value was “improved” and the succinate-driven respiration entry is on record as “slightly reduced”. In series [2] (setting [12]), the “level in the mitochondrial fraction” value was “μM levels” and the “share accumulated in the mitochondrial fraction” value is 80%. The “accumulation in the mitochondria of multiple organs” value in series [2] (kidney, heart and liver) is “robustly accumulated”. Also, the “decrease in renal ATP levels” value in [3] is listed as “prevented”. For the same compound, the endothelial nitric oxide entry in series [4] is given as “completely prevented the decline”. Further, the tolerability entry in series [5] is reported as “well tolerated”. Moreover, the “SOD2 acetylation in aortas” value in series [6] (% compared to control mice, Ang II plus mito2HOBA) is reported as 147%. For the same compound, the “CypD acetylation in aortas” value in series [6] (% compared to control, Ang II plus mito2HOBA) is listed as 156%. In addition, the “hyperacetylation of mitochondrial proteins in aortas” value in [6] (Ang II 14 days, mito2HOBA 0.1 g/L (Ang II alone 420%)) is “normalized”. In [6] (Ang II plus mito2HOBA), the “isoLG-complex I NDUFS1 subunit adduct levels” value is given as “reduced” and the “mitochondrial isoLG adducts in aortic mitochondria” value is reported as “inhibited formation”. Besides, in series [7], the “renal mitochondrial Ca2+-retention capacity” value is reported as “completely prevented decline”. In addition, the “mitochondrial respiration supported by glutamate plus malate” value in [8] is on record as “preserved”. In series [9] (DHE, % compared to Sham control, Ang II plus mito2HOBA (Ang II alone 217%)), the aortic cellular superoxide is 152%. The “increase in aortic mitochondrial superoxide” value in [9] (mitoSOX, Ang II plus mito2HOBA) was “completely prevented”.

The values are drawn from patent publication US12564580B2, “Mitochondria-targeted isoketal/isolevuglandin scavengers and uses thereof” (Vanderbilt University, priority 2020, dated 2026).
